Literature values in patent US20070105912A1, “Pharmaceutical compositions comprising lercanidipine” (priority 2003, published 2007).
“And” between values parts separate entries of the source, which are not always exact repeats. Equal entries are not always repeated.

Compound: COC(=O)C1=C(C)NC(C)=C(C(=O)OC(C)(C)CN(C)CCC(c2ccccc2)c2ccccc2)C1c1cccc([N+](=O)[O-])c1 (centres unmarked) [Lercanidipine, methyl 1,1-N-trimethyl-N-(3,3-diphenylpropyl)aminoethyl 1,4dihydro 6-dimethyl (3-nitrophenyl)pyridine-3,5-dicarboxylate]
- Terminal elimination t1/2 (in vivo): 2 to 5 h
- Time of peak plasma levels following dosing (oral administration): 1.5 to 3 h
- Fraction of the oral dose excreted in urine (oral dose): about 50%
- Increase of amount absorbed with simultaneous intake of food (oral, with food vs without food): 3 to 4 times and 3-4 times
- Bound to plasma proteins (plasma proteins): more than 98%
